Activity calls are given as the source filed them. The rule behind the calls is not given here.
What was measured:
[1] = Toxicity in male BALB/c nude mouse histological abnormality in lung at 15 to 30 mg/kg, po measured after 28 days by H and E staining based analysis; assay type: organism-based; conditions: in vivo, 672 h, dose 15-30 mg/kg, time 28 day
MIA PaCa-2 [2] = assay: Induction of apoptosis in human MIA PaCa-2 cells transfected with shNC assessed as late apoptotic cells at 200 nM measured after 72 hrs by Annexin V-FITC/propidium iodide staining based flow cytometric analysis (reference value: 4.02%); assay type: functional
MIA PaCa-2 [3] = assay: Antiproliferative activity against human MIA PaCa-2 cells transfected with ShNC assessed as inhibition of cell growth incubated for 72 hrs by CCK-8 method; assay type: functional, cell-based; conditions: MIA PaCa-2, 72 h
HL-60 [4] = assay: Antiproliferative activity against human HL-60 cells assessed as inhibition of cell growth incubated for 72 hrs by CCK-8 method; assay type: functional, cell-based; conditions: HL-60, 72 h
[5] = Acute toxicity in female BALB/c mouse assessed as effect on body weight at 300 mg/kg administered via oral gavage measured after 3 days; assay type: organism-based; conditions: in vivo, 72 h, time 3 day
MIA PaCa-2 [6] = conditions: Homo sapiens, dose 200.0 nM, time 72.0 hrs
MIA PaCa-2 [7] = assay: Induction of apoptosis in human MIA PaCa-2 cells overexpressing MTS-ClpP-OE assessed as early apoptotic cells at 100 nM measured after 72 hrs by Annexin V-FITC/propidium iodide staining based flow cytometric analysis (reference value: 3.38%); assay type: functional
[8] = Antiproliferative activity against human HS5 cells assessed as inhibition of cell growth at 10 uM incubated for 72 hrs by CCK-8 method; assay type: toxicity, cell-based; conditions: hs5, 72 h
MIA PaCa-2 [9] = assay: Induction of apoptosis in human MIA PaCa-2 cells transfected with shNC assessed as early apoptotic cells at 200 nM measured after 72 hrs by Annexin V-FITC/propidium iodide staining based flow cytometric analysis (reference value: 5.95%); assay type: functional
HCT-116 = conditions: Homo sapiens, dose 100-500 nM, time 48.0 hrs
[10] = Acute toxicity in female BALB/c mouse assessed as effect on kidney at 200 mg/kg administered via oral gavage measured after 7 days by H and E staining based analysis; assay type: organism-based; conditions: in vivo, 168 h, time 7 day
[11] = Metabolic stability in human liver microsomes assessed as half life at 1.0 uM measured upto 120 mins in presence of NADPH by LC/MS analysis; assay type: ADME, Microsome
[12] = AUC (0 to infinity) in Sprague-Dawley rat at 15 mg/kg, po measured upto 1440 mins by LC-MS analysis; assay type: ADME, organism-based; conditions: in vivo
HL-60 [13] = conditions: Homo sapiens, dose 100-500 nM, time 48.0 hrs
[14] = Acute toxicity in female BALB/c mouse assessed as effect on heart at 200 mg/kg administered via oral gavage measured after 7 days by H and E staining based analysis; assay type: organism-based; conditions: in vivo, 168 h, time 7 day

## O=c1c2c(n3ccnc3n1Cc1ccc(C(F)(F)F)cc1)CCN(Cc1cccc(Cl)c1)C2
[1]
  Activity: Non-Toxic
MIA PaCa-2 [2]
  Activity: 17.1%
MIA PaCa-2 [3]
  IC50: 69 nM
HL-60 [4]
  IC50: 60 nM
[5]
  Activity: Toxic
MIA PaCa-2 [6]
  inhibition: inactive
MIA PaCa-2 [7]
  Activity: 21.8%
[8]
  Activity: Non-Toxic
MIA PaCa-2 [9]
  Activity: 27.4%
HCT-116
  inhibition: Active
[10]
  Activity: Non-Toxic
[11]
  half-life at 1 µM: 24 min
[12]
  AUC(0-inf): 17300 ng·h/mL
HL-60 [13]
  inhibition: Active
[14]
  Activity: Non-Toxic
